According to patent US10849901B2, “Arf6 inhibitors and methods of synthesis and use thereof” (Navigen, Inc., priority 2014, dated 2020):
Like-named read-outs stand apart in the source and are kept apart here.

What was measured:
[1] = tested on: LPS-induced acute lung injury; assay: LPS-induced acute lung injury in mice (BALF analysis); format: in vivo; conditions: 24 hours after LPS, Compound 38 60 mg/kg, dexamethasone 5 mg/kg
Protocol: In the experiment, LPS (5 mg/kg) was given by intra-tracheal instillation. Dexamethasone (5 mg/kg) was given as a positive control 2 hours after the LPS. Bronchoalveolar fluid (BALF) was analyzed for cell count and protein 24 hours after the LPS.

[2] = tested on: VEGF-induced retinal permeability; assay: VEGF-induced retinal permeability in mice (Evans blue dye); format: in vivo
Protocol: (§1) In the experiment, VEGF (50 ng) and either Compound 38 or 65 (500 ng) or NAV-3745 (500 ng) were given to mice in a single intraocular injection. Evans blue dye (EBD) was given via IV approximately 6 hours after the injection, and the retinas were harvested after an additional 2 hours. Retinal permeability was measured on Day 2 after an overnight extraction of EBD in formamide, at OD 620-740 nm.
as §1, with “the test compound” for “either Compound 38 or 65 (500 ng) or NAV-3745 (500 ng)”, “injection. Avastin was given at a dose of 20 μg, Compound 38 at either 50 ng or 500 ng (as noted in FIG. 7), and SU4312 at 5 μg. As with the previous experiment,” for “injection.”

[3] = tested on: VEGF-induced retinal permeability; assay: VEGF-induced retinal permeability in rats (Evans blue dye); format: in vivo; conditions: rat, not told, ip, 60 mg/kg
Protocol: In the experiment, VEGF (500 ng) and Avastin (200 μg) were given to rats in a single intraocular injection on Day 1. Compound 38 (60 mg/kg) was administered by IP injection 1 hour prior to VEGF on Day 1. Rats were given Evans blue dye (EBD) via IV infusion on Day 2, and the retinas were harvested after an additional 1.5 hours. The retinas were dissected and incubated overnight in formamide. Vascular leak was calculated on Day 3.

[4] = tested on: collagen-induced arthritis; assay: Mouse model of collagen-induced arthritis; format: in vivo; conditions: mice, 14 days; Compound 4 10, 30, 60 mg/kg BID; Enbrel 10 mg/kg QD
Protocol: In the experiment, mice were immunized with collagen on Days 1 and 21, and randomized to treatment groups on or around Day 28, then subject to fourteen days of treatment with a test compound. Vehicle (●), Compound 4 at 10 mg/kg (▴), Compound 4 at 30 mg/kg (▾), Compound 4 at 60 mg/kg (♦), or Enbrel (▪; 10 mg/kg) was given. Compound 4 was given twice daily (BID); Enbrel was given once daily (QD); and vehicle was given twice daily (BID).

[5] = target: Arf6 (Homo sapiens (Human), UniProt P62330); assay: Fluorometric assay for Arf6 nucleotide exchange catalyzed by ARNO Sec7 domain (GTP-BODIPY FL); format: biochemical
Sequence of Arf6 (P62330 14-175): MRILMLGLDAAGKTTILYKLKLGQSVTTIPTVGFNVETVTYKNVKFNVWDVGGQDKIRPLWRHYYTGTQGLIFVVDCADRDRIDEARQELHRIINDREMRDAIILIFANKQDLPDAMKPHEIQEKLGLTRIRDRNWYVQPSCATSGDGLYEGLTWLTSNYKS
Protocol: FIGS. 1A-1D: Fluorometric high throughput assay for Arf6 nucleotide exchange catalyzed by ARNO Sec7 domain. FIG. 1A: Principle of the assay. FIG. 1B: SDS-PAGE analysis of N-terminally His-tagged Arf6(14-175) and ARNO(50-255) purified from the E. coli cultures by immobilized metal affinity chromatography. FIG. 1C: Correlation between signal intensity and ARNO concentration. The assay was performed using 50 mM Tris-HCl, pH 7.5, 1 mM MgCl2, 0.01% TX-100, 1% DMSO, 50 nM GTP-BODIPY FL, supplemented with ARNO-Sec7 at indicated concentrations in the absence or in the presence of 0.2 μM Arf6-GDP. Fluorescence intensities were monitored using a Synergy 4 plate reader (BioTek) at the excitation and emission wavelengths of 490 nm and 520 nm, respectively. FIG. 1D: Time course of apparent inhibitory potency of GDP. The assay was performed in automated mode using a Matrix PlateMate liquid handler.
The primary biochemical assay uses a fluorometric assay for monitoring the replacement of bound nucleotide with a fluorogenic GTP derivative bearing a BODIPY FL moiety, allowing for the identification of compounds that can inhibit this exchange (see FIG. 1A). In certain embodiments, the methods disclosed herein may exploit the reduction of intramolecular fluorescence quenching of the modified nucleotide upon its binding to the target protein (see, e.g., McEwen D P, Gee K R, Kang H C, Neubig R R. Fluorescent BODIPY-GTP analogs: real-time measurement of nucleotide binding to G proteins. Anal Biochem. 2001 Apr. 1; 291(1): 109-17).
The fluorometric assay formatted for 96-well microtiter plates has passed quality control based on the following criteria: i) S/B ratio of 4-fold and Z′-factor of 0.61; ii) linear correlation between signal intensity and ARNO concentration (see FIG. 1C); iii) sufficiently reproducible inhibitory effects of the reference inhibitor GDP for assay durations up to at least 1 hour (see FIG. 1D); and iv) lack of apparent fluorescence quenchers among 400 randomly selected compounds. The assay is amenable to automation with a throughput of approximately 5,000 data points per 8 hours.

[6] = tested on: oxygen-induced retinopathy; assay: Oxygen-induced retinopathy (OIR) in mice; format: in vivo; conditions: 5 μg intraocular Days 12 and 15, measured Day 17
Protocol: In the experiment, mice pups were placed in a 75% oxygen environment from Days 5-12. The mice were returned to a normal oxygen environment on Day 13. The test compounds were administered (5 μg) by intraocular injection on Days 12 and 15, and the area of neovascularization was measured on Day 17. Compound 38 was compared with SU4312 in oxygen-induced retinopathy (OIR) in mice (see FIG. 11). […]

[7] = 20 nM Arf6 assay, read-out: IC50 (μM) 20 nM Arf6
[8] = 200 nM Arf6 assay, read-out: IC50 (μM) 200 nM Arf6

Compound	IC50 [5, 7]	IC50 [5, 8]	other results
C[C@@H]1C[C@H]2[C@@H]3CCC4=CC(=O)C=C[C@]4(C)[C@@]3(F)[C@@H](O)C[C@]2(C)[C@@]1(O)C(=O)CO [dexamethasone, Dexamethasone, reference compound]			number of cells in the lung fluid (BALF) [1]: reduced the number of cells; protein concentration in the lung fluid (BALF) [1]: reduced
Avastin			VEGF-induced retinal permeability ([2]; mouse, not told): reduced VEGF-induced retinal permeability; VEGF-induced retinal permeability [3]: reduced VEGF-induced retinal permeability
O=c1cc(-c2cccc(Oc3ccccc3)c2)[nH]c2c(-c3ccc(Cl)c(Cl)c3)c(C(F)(F)F)nn12 [Compound 4]	0.52 µM	0.46 µM	inflammation as measured by the arthritic index [4]: reduced inflammation; area of neovascularization [6]: reduced the area of neovascularization
SU4312 [reference compound]			VEGF-induced retinal permeability ([2]; mouse, not told): little effect; area of neovascularization [6]: reduced the area of neovascularization
O=C(Nc1ccc(C2=Nc3c(-c4ccc(Cl)cc4)c(C(F)(F)F)nn3C(=O)C2)cc1)c1ccccc1 [Compound 3]	0.5 µM		
O=c1cc(-c2ccc([N+](=O)[O-])cc2)[nH]c2c(-c3ccc(Cl)cc3)c(-c3ccccc3)nn12 [Compound 11]	0.96 µM		
O=c1cc(-c2cccc(Br)c2)[nH]c2c(-c3ccc(Cl)cc3)c(C(F)(F)F)nn12 [Compound 34]	1.6 µM		
Cc1ccc(-c2cccc(-c3cc(=O)n4nc(C(F)(F)F)c(-c5ccc(Cl)cc5)c4[nH]3)c2)cn1 [Compound 12]	0.96 µM		
Enbrel			inflammation as measured by the arthritic index [4]: reduced inflammation
COc1ccc(-c2c(Cc3ccccc3)nn3c(=O)cc(C)[nH]c23)cc1 [NAV-3745, reference compound]			VEGF-induced retinal permeability ([2]; mice, 500 ng single intraocular injection with VEGF 50 ng (FIG. 6)): no effect

More lines, main results first:

IC50 [5, 7]	IC50 [5, 8]	Compound	other results
3.2 µM		Cc1nn2c(=O)cc(-c3ccc([N+](=O)[O-])cc3)[nH]c2c1-c1cccc(Cl)c1Cl [Compound 57]	
4.2 µM		Cc1nn2c(=O)cc(-c3ccc([N+](=O)[O-])cc3)[nH]c2c1-c1ccc(Cl)c(F)c1 [Compound 73]	
	3.2 µM	O=c1cc(-c2ccc([N+](=O)[O-])cc2)[nH]c2c(-c3ccccc3)c(Cc3ccccc3)nn12 [Compound 59]	
1.9 µM	4.7 µM	Cc1nn2c(=O)cc(-c3ccc([N+](=O)[O-])cc3)[nH]c2c1-c1ccc(Cl)cc1 [Compound 39]	
	1.4 µM	CCOc1ccc(-c2nn(-c3ccccc3)cc2/C=C2\SC(=S)N(CCC(=O)O)C2=O)cc1C [Compound 116]	
14 µM		O=c1cc(-c2ccc([N+](=O)[O-])cc2)[nH]c2c(-c3ccc(Cl)cc3)c(C3CC3)nn12 [Compound 104]	
4.2 µM	3.8 µM	O=c1cc(-c2ccc([N+](=O)[O-])cc2)[nH]c2c(-c3ccccc3)c(C(F)(F)F)nn12 [Compound 72]	
	6.7 µM	CC(C)(C)c1ccc(S(=O)(=O)Nc2ccc(O)c3ccccc23)cc1 [Compound 126]	
3.3 µM		O=c1cc(-c2ccccc2Br)[nH]c2c(-c3ccc(Cl)cc3)c(C(F)(F)F)nn12 [Compound 62]	
4.1 µM		Cc1nn2c(=O)cc(-c3cccc(-c4ccncc4)c3)[nH]c2c1-c1ccc(Cl)cc1 [Compound 70]	
	1.5 µM	N#Cc1c(SCc2cc(=O)[nH]c(=O)[nH]2)nc2c(c1-c1ccccc1)CC/C2=C\c1ccccc1 [Compound 117]	
14 µM		Cc1nn2c(=O)cc(C3CCCCC3)[nH]c2c1-c1ccc(Cl)cc1 [Compound 103]	
